The test system of the assay is metastatic CRPC patients with bone metastases. Briefly: Adaptive phase 2 trial (NCT00940225): case studies of the first three CRPC patients with bone metastases treated with compound 1. The class given is in vivo, human. The source says: All patients provided informed consent before study screening.
[1] abbreviates: Patient 1, best response, 100 mg dose.
[2] abbreviates: Patient 2, best response, 100 mg dose.
The mark [3] stands for this setting: Patient 3, best response, 100 mg dose.
Setting [4] is: three metastatic CRPC patients, summary.

Each structure is given as a SMILES string.

As to `COc1cc2nccc(Oc3ccc(NC(=O)C4(C(=O)Nc5ccc(F)cc5)CC4)cc3)c2cc1OC` [Compound 1, N-(4-{[6,7-bis(methyloxy)quinolin-4-yl]oxy}phenyl)-N′-(4-fluorophenyl)cyclopropane-1,1-dicarboxamide], the PSA is, setting by setting: (Patient 1, best response, change from baseline 430.4 ng/mL) −78%; (Patient 2, best response, change from baseline 14.7 ng/mL) “+61%”; (Patient 3, best response, change from baseline 2.8 ng/mL) −57%. The Hemoglobin entry reads like this: (Patient 1, best response, change from baseline 13.5 g/dL) “+1.4 g/dL”; (Patient 2, best response, change from baseline 13.3 g/dL) “+1.8 g/dL”; (Patient 3, best response, change from baseline 10.2 g/dL) “+2.2 g/dL”. Moreover, the tALP reads like this: (Patient 1, best response, change from baseline 689 U/L) −77%; (Patient 2, best response, change from baseline 108 U/L) −6%; (Patient 3, best response, change from baseline 869 U/L) −77%. Further, the Pain entry runs as follows: under setting [1], “Improvement”; under setting [2], “Pain-free”; under setting [3], “Pain-free”. The Tumor response reads like this: under setting [1], −41%; under setting [2], −20%; under setting [3], −51%. The Bone scan result under setting [2] is given as “Improvement”. For the same compound, the soft tissue lesions entry (all three patients, during therapy, summary) is on record as “evidence of response or stabilization in soft tissue lesions”. For the same compound, under “all three patients, summary”, the bone pain entry is listed as “substantial reductions in bone pain”. Moreover, the “uptake of radiotracer on bone scan” value (all three patients, summary) is reported as “striking decrease in uptake of radiotracer on bone scan”. The bone lesions result under setting [4] is on record as “near complete resolution of bone lesions”. In addition, the “bone pain and total serum alkaline phosphatase (tALP) levels” value under setting [4] is “marked reduction in bone pain and total serum alkaline phosphatase (tALP) levels”. For the same compound, under setting [4], the measurable disease entry was “reduction in measurable disease”.

The values above are taken from patent publication US20140330170A1, “Method of Quantifying Cancer Treatment” (Exelixis, Inc., priority 2012, published 2014).
